Results published in ChEMBL document CHEMBL1201862, “PubChem BioAssay data set” (2004).
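Interpolation was linear, between the two tested concentrations surrounding the appropriate level; five concentrations were tested over 48 hours in 96-well plates. GI50 = concentration required for 50% inhibition of growth.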 Calls of active or inactive are those of the source. No stated cut-off is given here; in the data, active = GI50 up to about 1.1 µM and inactive = higher.

How the values were obtained:
Test in all cases: NCI tumour cell line growth inhibition, 48 h
BT-549 = test system: BT-549
NCI-H226 = test system: NCI-H226
K562 = test system: K562
NCI/ADR-RES = test system: NCI/ADR-RES
SK-MEL-28 = test system: SK-MEL-28
EKVX = test system: EKVX
RXF 393 = test system: RXF 393
LOX IMVI = test system: LOX IMVI
SN12C = test system: SN12C
UO-31 = test system: UO-31
OVCAR-3 = test system: OVCAR-3
UACC-257 = test system: UACC-257
ACHN = test system: ACHN
COLO 205 = test system: COLO 205
SR = test system: SR
T47D = test system: T47D
MDA-MB-231 = test system: MDA-MB-231
TK-10 = test system: TK-10
SNB-75 = test system: SNB-75
SK-OV-3 = test system: SK-OV-3
M14 = test system: M14
DU-145 = test system: DU-145
HCC 2998 = test system: HCC 2998
UACC-62 = test system: UACC-62
SK-MEL-2 = test system: SK-MEL-2
HT-29 = test system: HT-29
OVCAR-4 = test system: OVCAR-4
CAKI-1 = test system: CAKI-1
MCF7 = test system: MCF7
KM12 = test system: KM12
786-0 = test system: 786-0
SF-295 = test system: SF-295
CCRF-CEM = test system: CCRF-CEM
PC-3 = test system: PC-3
SK-MEL-5 = test system: SK-MEL-5
MDA-N = test system: MDA-N
HCT-116 = test system: HCT-116
HOP-62 = test system: HOP-62
HOP-92 = test system: HOP-92
A549 = test system: A549
NCI-H460 = test system: NCI-H460
OVCAR-8 = test system: OVCAR-8
SF-539 = test system: SF-539
SF-268 = test system: SF-268
IGROV-1 = test system: IGROV-1
NCI-H23 = test system: NCI-H23
Malme-3M = test system: Malme-3M
Hs-578T = test system: Hs-578T
SW-620 = test system: SW-620
HL-60 = test system: HL-60
U-251 = test system: U-251
SNB-19 = test system: SNB-19
RPMI-8226 = test system: RPMI-8226
HCT-15 = test system: HCT-15
OVCAR-5 = test system: OVCAR-5
MDA-MB-435 = test system: MDA-MB-435
A498 = test system: A498
MOLT-4 = test system: MOLT-4
NCI-H522 = test system: NCI-H522

Measured: GI50

CCn1ncc(Oc2c(Cl)cc(N)cc2Cl)c(Cl)c1=O
27.8 µM: HCT-15
inactive: BT-549 25.6 µM | NCI-H226 40.3 µM | K562 35.1 µM | NCI/ADR-RES 31 µM | SK-MEL-28 51.3 µM | EKVX 34.9 µM | RXF 393 29 µM | LOX IMVI 32.9 µM | SN12C 79.3 µM | UO-31 47.4 µM | OVCAR-3 17.2 µM | UACC-257 31.6 µM | ACHN 57.9 µM | COLO 205 22.7 µM | SR 21.5 µM | T47D 50.2 µM | MDA-MB-231 54.6 µM | TK-10 47.2 µM | SNB-75 51.5 µM | SK-OV-3 31.3 µM | M14 30.1 µM | DU-145 60.8 µM | HCC 2998 34.7 µM | UACC-62 39.5 µM | SK-MEL-2 34.6 µM | HT-29 25.3 µM | OVCAR-4 54 µM | CAKI-1 35.1 µM | MCF7 38.7 µM | KM12 34.8 µM | 786-0 41.5 µM | SF-295 29 µM | CCRF-CEM 83 µM | PC-3 35.9 µM | SK-MEL-5 24 µM | MDA-N 29.9 µM | HCT-116 30.4 µM | HOP-62 44.9 µM | HOP-92 73.6 µM | A549 30.5 µM | NCI-H460 32.2 µM | OVCAR-8 56.5 µM | SF-539 31.6 µM | SF-268 31 µM | IGROV-1 42.3 µM | NCI-H23 30.5 µM | Malme-3M 32.9 µM | Hs-578T 22.5 µM | SW-620 37.2 µM | HL-60 34.2 µM | U-251 34.1 µM | SNB-19 33.4 µM | RPMI-8226 31.6 µM | OVCAR-5 43.9 µM | MDA-MB-435 29.1 µM | A498 47.3 µM

O=c1[nH]/c(=C/c2ccc(OCc3ccccc3)cn2)c(=O)[nH]/c1=C/c1ccccc1
active: BT-549 0.787 µM | K562 0.141 µM | NCI/ADR-RES 0.0794 µM | MOLT-4 0.327 µM | NCI-H522 0.0942 µM | EKVX 0.138 µM | RXF 393 0.0951 µM | LOX IMVI 0.207 µM | SN12C 0.113 µM | OVCAR-3 0.114 µM | ACHN 0.296 µM | COLO 205 1.06 µM | SR 0.289 µM | MDA-MB-231 0.59 µM | TK-10 0.164 µM | SNB-75 0.0643 µM | SK-OV-3 0.531 µM | M14 0.129 µM | DU-145 0.128 µM | HCC 2998 0.175 µM | UACC-62 0.191 µM | HT-29 0.12 µM | OVCAR-4 0.465 µM | CAKI-1 0.194 µM | MCF7 0.425 µM | KM12 0.118 µM | 786-0 0.128 µM | SF-295 0.107 µM | CCRF-CEM 0.126 µM | PC-3 0.141 µM | SK-MEL-5 0.106 µM | MDA-N 0.0402 µM | HCT-116 0.146 µM | HOP-62 0.239 µM | A549 0.594 µM | NCI-H460 0.132 µM | OVCAR-8 0.189 µM | SF-539 0.12 µM | SF-268 0.206 µM | IGROV-1 0.207 µM | NCI-H23 0.107 µM | Hs-578T 0.185 µM | SW-620 0.158 µM | HL-60 0.091 µM | U-251 0.119 µM | SNB-19 0.157 µM | RPMI-8226 0.123 µM | OVCAR-5 1.07 µM | MDA-MB-435 0.0434 µM | A498 0.743 µM
inactive: SK-MEL-28 > 100 µM | T47D > 24.7 µM | HOP-92 14.3 µM
0.135 µM: HCT-15

N#Cc1ccc(OCc2ccc3nc(-c4ccccc4)c(Cl)nc3c2)cc1
inactive: BT-549 > 100 µM | NCI/ADR-RES > 100 µM | MOLT-4 > 100 µM | SK-MEL-28 > 100 µM | NCI-H522 > 100 µM | EKVX > 100 µM | LOX IMVI > 100 µM | SN12C > 100 µM | UO-31 > 100 µM | OVCAR-3 > 100 µM | UACC-257 > 100 µM | ACHN 43.6 µM | COLO 205 > 100 µM | SR > 100 µM | T47D > 100 µM | MDA-MB-231 > 100 µM | TK-10 58.1 µM | SNB-75 > 100 µM | M14 > 100 µM | DU-145 > 100 µM | HCC 2998 > 100 µM | UACC-62 > 100 µM | SK-MEL-2 > 100 µM | HT-29 > 100 µM | OVCAR-4 > 100 µM | CAKI-1 > 100 µM | MCF7 > 100 µM | KM12 > 100 µM | 786-0 54 µM | SF-295 > 100 µM | CCRF-CEM > 100 µM | PC-3 > 100 µM | SK-MEL-5 > 100 µM | MDA-N > 100 µM | HCT-116 > 100 µM | HOP-62 42.7 µM | HOP-92 > 100 µM | A549 > 100 µM | NCI-H460 > 100 µM | OVCAR-8 > 100 µM | SF-539 > 100 µM | SF-268 > 100 µM | IGROV-1 > 100 µM | NCI-H23 > 100 µM | Malme-3M > 100 µM | Hs-578T > 100 µM | SW-620 > 100 µM | HL-60 > 100 µM | U-251 72.1 µM | SNB-19 > 100 µM | RPMI-8226 > 100 µM | OVCAR-5 > 100 µM | MDA-MB-435 > 100 µM | A498 > 100 µM
> 100 µM: HCT-15

Cc1nc2[nH]ccn2c(=O)c1CCO
> 10 µM: HCT-15
inactive: BT-549 > 10 µM | NCI-H226 > 10 µM | K562 > 10 µM | NCI/ADR-RES > 10 µM | MOLT-4 > 10 µM | SK-MEL-28 > 10 µM | EKVX > 10 µM | RXF 393 > 10 µM | LOX IMVI > 10 µM | SN12C > 10 µM | UO-31 > 10 µM | OVCAR-3 > 10 µM | UACC-257 > 10 µM | ACHN > 10 µM | COLO 205 > 10 µM | SR > 10 µM | T47D > 10 µM | MDA-MB-231 > 10 µM | TK-10 > 10 µM | SNB-75 > 10 µM | SK-OV-3 > 10 µM | M14 > 10 µM | DU-145 > 10 µM | UACC-62 > 10 µM | HT-29 > 10 µM | OVCAR-4 > 10 µM | CAKI-1 > 10 µM | MCF7 > 10 µM | KM12 > 10 µM | 786-0 > 10 µM | SF-295 > 10 µM | CCRF-CEM > 10 µM | PC-3 > 10 µM | SK-MEL-5 > 10 µM | MDA-N > 10 µM | HCT-116 > 10 µM | HOP-62 > 10 µM | HOP-92 > 10 µM | A549 > 10 µM | NCI-H460 > 10 µM | OVCAR-8 > 10 µM | SF-539 > 10 µM | SF-268 > 10 µM | IGROV-1 > 10 µM | NCI-H23 > 10 µM | Malme-3M > 10 µM | Hs-578T > 10 µM | SW-620 > 10 µM | HL-60 > 10 µM | U-251 > 10 µM | SNB-19 > 10 µM | RPMI-8226 > 10 µM | OVCAR-5 > 10 µM | MDA-MB-435 > 10 µM | A498 > 10 µM

O=C(C(=O)N1CCc2ccccc21)c1c[nH]c2ccccc12
inactive: BT-549 > 10 µM | NCI-H226 > 10 µM | K562 > 10 µM | NCI/ADR-RES > 10 µM | MOLT-4 > 10 µM | SK-MEL-28 > 10 µM | NCI-H522 > 10 µM | EKVX > 10 µM | RXF 393 > 10 µM | LOX IMVI > 10 µM | SN12C > 10 µM | UO-31 > 10 µM | OVCAR-3 > 10 µM | UACC-257 > 10 µM | ACHN > 10 µM | COLO 205 > 10 µM | SR > 10 µM | T47D > 10 µM | MDA-MB-231 > 10 µM | TK-10 > 10 µM | SNB-75 > 10 µM | SK-OV-3 > 10 µM | M14 > 10 µM | DU-145 > 10 µM | HCC 2998 > 10 µM | UACC-62 > 10 µM | SK-MEL-2 > 10 µM | HT-29 > 10 µM | OVCAR-4 > 10 µM | CAKI-1 > 10 µM | MCF7 > 10 µM | KM12 > 10 µM | 786-0 > 10 µM | SF-295 > 10 µM | CCRF-CEM > 10 µM | PC-3 > 10 µM | SK-MEL-5 > 10 µM | MDA-N > 10 µM | HCT-116 > 10 µM | HOP-62 > 10 µM | HOP-92 > 10 µM | A549 > 10 µM | NCI-H460 > 10 µM | OVCAR-8 > 10 µM | SF-539 > 10 µM | SF-268 > 10 µM | IGROV-1 > 10 µM | NCI-H23 > 10 µM | Malme-3M > 10 µM | Hs-578T > 10 µM | SW-620 > 10 µM | HL-60 > 10 µM | U-251 > 10 µM | SNB-19 > 10 µM | RPMI-8226 > 10 µM | OVCAR-5 > 10 µM | MDA-MB-435 > 10 µM
> 10 µM: HCT-15
